“Also recorded” adds a separate entry of the source. Read-outs that look alike come from different tables or passages of the source. Marks after values point to notes of the source that are not given here.
Assays:
[1] = target: T1, μ-opioid receptors (MOP receptors) (Mus musculus, UniProt P42866); type: cell-based
T1 construct: expressed in transfected cells; host or cells: HEK293

[2] = target: T1, μ-opioid receptors (MOP receptors); type: cell-based; remark: listed apart in the source
Protocol: Briefly, HEK-MOP cells were pre-incubated with 2% (2-hydroxypropyl)-β-cyclodextrin (βCD) for 1 h at 37° C. to deplete cholesterol from caveloae in the cell membrane. Cells were washed with DMEM and then utilized in the forskolin-stimulated cAMP assay as described above. […] Cells were washed with DMEM and then utilized in the forskolin-stimulated cAMP assay as described above.

T1 sequence (P42866 whole entry): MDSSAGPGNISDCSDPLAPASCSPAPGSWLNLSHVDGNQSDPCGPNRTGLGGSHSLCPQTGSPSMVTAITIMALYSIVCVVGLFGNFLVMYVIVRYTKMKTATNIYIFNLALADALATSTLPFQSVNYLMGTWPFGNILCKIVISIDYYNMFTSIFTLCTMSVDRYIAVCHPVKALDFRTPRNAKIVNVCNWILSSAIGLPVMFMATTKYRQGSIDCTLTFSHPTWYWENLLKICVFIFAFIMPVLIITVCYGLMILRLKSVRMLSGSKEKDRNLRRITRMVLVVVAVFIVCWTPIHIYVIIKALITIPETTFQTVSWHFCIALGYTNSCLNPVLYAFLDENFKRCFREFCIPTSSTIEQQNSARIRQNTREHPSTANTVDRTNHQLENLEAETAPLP

Row | Compound | % of forskolin stimulated cyclic AMP response ([1]; Conc 10^−10 M) | % of forskolin stimulated cyclic AMP response ([1]; Conc 10^−12 M) | % of forskolin stimulated cyclic AMP response ([2]; Conc 10^−3 M) [%] | % of forskolin stimulated cyclic AMP response ([2]; Conc 10^−4 M) | % of forskolin stimulated cyclic AMP response ([2]; Conc 10^−5 M) | % of forskolin stimulated cyclic AMP response ([2]; Conc 10^−6 M) | % of forskolin stimulated cyclic AMP response ([2]; Conc 10^−7 M) [%] | % of forskolin stimulated cyclic AMP response ([2]; Conc 10^−8 M) | % of forskolin stimulated cyclic AMP response ([2]; Conc 10^−9 M) | % of forskolin stimulated cyclic AMP response ([2]; Conc 10^−11 M) [%] | % of forskolin stimulated cyclic AMP response ([2]; Conc 10^−13 M) | % of forskolin stimulated cyclic AMP response ([2]; Conc 10^−14 M) | % of forskolin stimulated cyclic AMP response ([2]; Conc 10^−15 M) | % of forskolin stimulated cyclic AMP response ([2]; Conc 10^−16 M) | % of forskolin stimulated cyclic AMP response ([2]; Conc 10^−17 M) | % of forskolin stimulated cyclic AMP response ([2]; Conc 10^−18 M) | effect on forskolin-stimulated cAMP responses ([1]; MOP-transfected HEK293 (FIG. 11))
1 | Cc1c(-c2ccc(F)cc2)no[n+]1[O-] [Compound 23] | 56.5% | 74.7% | 46.6 | 121.2% | 66.2% | 90.0% | 89.0 | 98.2% | 64.0% | 75.7 | 87.6% | 79.2% | 80.4% | 77.1% | 73.6% | 80.2% | –
2 | Cc1c(-c2ccccc2)no[n+]1[O-] [Compound 13] | 106.9% | 108.8% | 40.2 | 67.1% | 109.4^a % | 84.5^a % | 78.8 | 80.3% | 94.9% | 66.3 | 89.6% | 99.4^a % | 101.5% | 88.3^a % | 105.3% | 61.2% | –
3 | Nc1nc2c(nc(Br)n2[C@@H]2O[C@@H]3COP(=O)(O)O[C@H]3[C@H]2O)c(=O)[nH]1 [Compound 8-Br-cGMP, 8-Br-cGMP, reference compound] | – | – | – | – | – | – | – | – | – | – | – | – | – | – | – | – | did not inhibit forskolin-stimulated cAMP responses; also recorded: lack of effects
4 | O=C(O)c1c(-c2ccc(F)cc2)no[n+]1[O-] [Compound 18] | 83.6% | 82.2% | 7.1 | 79.0% | 97.7% | 101.0% | 91.9 | 81.7% | 142.3^a % | 77.5 | 85.4% | 85.3% | 90.4% | 89.6% | 94.1% | 54.7^a % | –
5 | [O-][n+]1onc(-c2ccccc2)c1-c1ccccc1 [Compound 5] | 79.2% | 119.1% | 69.6 | 99.8% | 120.4% | 142.4% | 112.7 | 73.6% | 57.7% | 76.3 | 102.3% | 105.6% | 117.0% | 91.2% | 75.8% | 68.7% | –
6 | CCc1c(C(=O)O)no[n+]1[O-] [Compound 8] | 79.4% | 128.3% | 6.8 | 68.2% | 90.0% | 104.7% | 102.9 | 114.3% | 107.0% | 88.3 | 112.7% | 94.8% | 97.6% | 140.5% | 115.0% | 72.8% | –
7 | O=Cc1c(-c2ccccc2)no[n+]1[O-] [Compound 14] | 69.5% | 92.8% | 8.5 | 40.7^a % | 51.0^a % | 110.6^a % | 121.5 | 113.2^a % | 107.4% | 62.7 | 94.2% | 103.4^a % | 103.8% | 129.8% | 120.5% | 95.1% | –
8 | [O-][n+]1onc(-c2ccccc2)c1CO [Compound 31] | 42.8^a % | 81.4% | 3.8 | 182.4^a % | 96.9^a % | 60.0^a % | 108.4 | 36.2^a % | 76.8^a % | 61.0 | 85.7% | 77.5^a % | 42.2^a % | 54.8% | 48.5^a % | 94.5% | –
9 | [O-][n+]1onc(-c2ccc(F)cc2)c1-c1ccc(F)cc1 [Compound 21] | 38.4% | 42.9% | 7.1 | 42.1% | 63.5% | 53.0% | 47.3 | 57.5% | 46.5% | 29.9 | 61.5% | 59.7% | 64.0% | 67.7% | 49.1% | 38.7% | –
10 | CC(=O)c1c(-c2ccccc2)no[n+]1[O-] [Compound 27] | 46.0% | 66.7^a % | 22.4 | 73.8^a % | 128.2% | 60.0% | 83.2 | 86.4% | 56.4% | 84.4 | 88.3^a % | 78.2% | 115.4% | 162.4% | 108.6^a % | 56.5% | –
11 | COc1ccc(-c2no[n+]([O-])c2C)cc1 [Compound 24] | 60.2% | 90.1% | 71.2 | 106.7^a % | 131.1^a % | 56.7% | 94.3 | 53.8^a % | 132.4% | 79.4 | 82.3% | 75.1% | 97.0^a % | 88.0% | 70.0% | 70.0% | –
